Like-named read-outs stand apart in the source and are kept apart here.
System: IFNα-Induced STAT Phosphorylation (pSTAT5)
Assay: IFNα-Induced STAT Phosphorylation in Human Whole Blood
Format: cell-based
Details: 1 h incubation with compound, then 1000 U/mL recombinant human IFNα A/D for 15 min, pSTAT5 in CD3 positive population, read-out: Human Whole blood IFNa pSTAT5 IC50
Procedure: IFNα-Induced STAT Phosphorylation in Human Whole Blood
After an hour long incubation with compound, human whole blood (drawn with ACD-A as anticoagulant) was stimulated with 1000 U/mL recombinant human IFNα A/D (R&D Systems 11200-2) for 15 min. The stimulation was stopped by adding Fix/Lyse buffer (BD 558049). Cells were stained with a CD3 FITC antibody (BD 555916), washed, and permeabilized on ice using Perm III buffer (BD 558050). Cells were then stained with an Alexa-Fluor 647 pSTAT5 (pY694) antibody (BD 612599) for 60 min prior to analysis on the iQue Plus. The amount of pSTAT5 expression was quantitated by median fluorescence intensity after gating on the CD3 positive population.

Structure (SMILES) | IC50 (Homo sapiens) | IC50
CCC(=O)c1cnc(NC(=O)[C@H]2C[C@@H]2F)cc1Nc1ncccc1S(=O)(=O)C(F)F [Example 20, (1R,2S)-N-(4-((3-((difluoromethyl)sulfonyl)pyridin-2-yl)amino)-5-propionylpyridin-2-yl)-2-fluorocyclopropane-1-carboxamide] | 460 nM | 
[2H]C([2H])([2H])NC(=O)c1nnc(NC(=O)OC)cc1Nc1ncccc1S(=O)(=O)C1CC1 [Example 2, methyl (5-((3-(cyclopropylsulfonyl)pyridin-2-yl)amino)-6-((methyl-d3)carbamoyl)pyridazin-3-yl)carbamate] | 670 nM | 
[2H]C([2H])([2H])NC(=O)c1nnc(NC(=O)C2CC2C)cc1Nc1ncccc1S(=O)(=O)C(F)F (single isomer, unassigned) [Example 13a, 4-((3-((difluoromethyl)sulfonyl)pyridin-2-yl)amino)-N-(methyl-d3)-6-(2-methylcyclopropane-1-carboxamido)pyridazine-3-carboxamide] |  | 110 nM
CCC(=O)c1cnc(NC(=O)C2CC2)cc1Nc1ncccc1S(=O)(=O)C1CC1 [Example 3, N-(4-((3-(cyclopropylsulfonyl)pyridin-2-yl)amino)-5-propionylpyridin-2-yl)cyclopropanecarboxamide] | 590 nM | 
CCC(=O)c1cnc(NC(=O)N(C)C)cc1Nc1ncccc1S(=O)(=O)C(F)F [Example 16, 3-(4-((3-((difluoromethyl)sulfonyl)pyridin-2-yl)amino)-5-propionylpyridin-2-yl)-1,1-dimethylurea] | 980 nM | 
CCC(=O)c1cnc(NC(=O)C2CC2)cc1Nc1ncccc1S(=O)(=O)C(F)F [Example 15, N-(4-((3-((difluoromethyl)sulfonyl)pyridin-2-yl)amino)-5-propionylpyridin-2-yl)cyclopropanecarboxamide] | 150 nM | 
[2H]C([2H])([2H])NC(=O)c1nnc(NC(=O)OC)cc1Nc1ncccc1S(=O)(=O)C(F)F [Example 5, methyl (5-((3-((difluoromethyl)-sulfonyl)pyridin-2-yl)amino)-6-((methyl-d3)carbamoyl)-pyridazin-3-yl)carbamate] | 250 nM | 
[2H]C([2H])([2H])NC(=O)c1nnc(NC(=O)C2CC2C)cc1Nc1ncccc1S(=O)(=O)C(F)F (single isomer, unassigned) [Example 13b, 4-((3-((difluoromethyl)sulfonyl)pyridin-2-yl)amino)-N-(methyl-d3)-6-(2-methylcyclopropane-1-carboxamido)pyridazine-3-carboxamide] |  | 10 nM
CCC(=O)c1cnc(NC(=O)[C@H]2C[C@@H]2C)cc1Nc1ncccc1S(=O)(=O)C(F)F [Example 18, (1S,2S)-N-(4-((3-((difluoromethyl)sulfonyl)pyridin-2-yl)amino)-5-propionylpyridin-2-yl)-2-methylcyclopropane-1-carboxamide] | 850 nM | 
CCC(=O)c1cnc(Nc2cccc(F)n2)cc1Nc1ncccc1S(=O)(=O)C(F)F [Example 22, 1-(4-((3-((difluoromethyl)sulfonyl)pyridin-2-yl)amino)-6-((6-fluoropyridin-2-yl)amino)pyridin-3-yl)propan-1-one] | 220 nM | 
[2H]C([2H])([2H])NC(=O)c1nnc(NC(=O)C2CC2)cc1Nc1ncccc1S(=O)(=O)C(F)F [Example 4, 6-(cyclopropanecarboxamido)-4-((3-((difluoromethyl)sulfonyl)-pyridin-2-yl)amino)-N-(methyl-d3)pyridazine-3-carboxamide] | 30 nM | 
CCC(=O)c1cnc(NC(=O)C2CC2C)cc1Nc1ncccc1S(=O)(=O)C(F)F (single isomer, unassigned) [Example 21b, N-(4-((3-((difluoromethyl)sulfonyl)pyridin-2-yl)amino)-5-propionylpyridin-2-yl)-2-methylcyclopropane-1-carboxamide] |  | 50 nM
[2H]C([2H])([2H])NC(=O)c1nnc(NC(=O)N(C)C)cc1Nc1ncccc1S(=O)(=O)C(F)F [Example 6, 4-((3-((difluoromethyl)sulfonyl)pyridin-2-yl)amino)-6-(3,3-dimethylureido)-N-(methyl-d3)pyridazine-3-carboxamide] | 210 nM | 
CCC(=O)c1cnc(NC(=O)[C@@H]2CC23CC3)cc1Nc1ncccc1S(=O)(=O)C(F)F [Example 17] |  | 960 nM
[2H]C([2H])([2H])NC(=O)c1nnc(NC(=O)C2CC2)cc1Nc1ncccc1S(=O)(=O)C1CC1 [Example 1, 6-(cyclopropanecarboxamido)-4-((3-(cyclopropylsulfonyl)pyridin-2-yl)amino)-N-(methyl-d3) pyridazine-3-carboxamide] | 70 nM | 
CCC(=O)c1cnc(NC(=O)C2CC2C)cc1Nc1ncccc1S(=O)(=O)C(F)F (single isomer, unassigned) [Example 21a, N-(4-((3-((difluoromethyl)sulfonyl)pyridin-2-yl)amino)-5-propionylpyridin-2-yl)-2-methylcyclopropane-1-carboxamide] |  | 1400 nM

— patent US20250066322A1, “SUBSTITUTED HETEROCYCLIC COMPOUNDS” (BRISTOL-MYERS SQUIBB COMPANY, priority 2021, published 2025)
